# From patent US20110003393A1, “SYSTEMS AND METHODS FOR STUDYING INFLUENZA” (President and Fellows of Harvard College, priority 2007, published 2011)
# What was measured:
# [1] = target: T1, M2 proton channel of the influenza A virus (Influenza A virus, UniProt P0DOF5, C19S/C50S); assay type: binding, influenza A virus (A/Udorn)
# [2] = target: T1, M2 proton channel of the influenza A virus; assay type: binding, influenza A virus (A/Udorn); details: pH 7.5, 40 mM rimantadine, 0.75 mM M2(18-60) monomer, 300 mM DHPC, four NOESY spectra
smiles,measurement,setting,value
CC(N)C12CC3CC(CC(C3)C1)C2 (stereo not drawn) [rimantadine],affinity for the open state of the channel,[1]; pH 6,"much lower affinity, if any, for the open state"
same,effect of binding on channel conformation,[1]; pH 7,stabilizes the closed conformation
same,location of binding site from protein-rimantadine NOEs,[2],"between adjacent helices at the C-terminal end of the TM domain near the Trp41 gate, on the membrane side of the channel"
